From patent publication US4792545A, “Boholmycin antibiotic” (Bristol-Myers Company, priority 1986, dated 1988)
Converted amounts (≈) assume the structure as drawn. Where two headings read alike, the source gives them in different places.

How the values were obtained:
S. aureus 209P = test: MIC by serial agar dilution; type: cell-based
S. aureus Smith [1] = test: MIC by serial agar dilution; type: cell-based
S. aureus A20239 = test: MIC by serial agar dilution; type: cell-based
M. luteus PCI-1001 = test: MIC by serial agar dilution; type: cell-based
M. flavus D-12 = test: MIC by serial agar dilution; type: cell-based
B. subtilis ATCC6633 = test: MIC by serial agar dilution; type: cell-based; conditions: medium A: Nutrient agar
B. anthracis IID-115 = test: microbe, parasite or virus in culture; type: cell-based
E. coli NIHJ = test: MIC by serial agar dilution; type: cell-based; conditions: medium A: Nutrient agar
E. coli Juhl [2] = test: MIC by serial agar dilution; type: cell-based; conditions: medium A: Nutrient agar
E. coli K-12 = test: MIC by serial agar dilution; type: cell-based
E. coli A20664 = test: MIC by serial agar dilution; type: cell-based; conditions: E. coli A20664, kanamycin resistant strain, medium A: Nutrient agar
E. coli JR35/c600 = test: MIC by serial agar dilution; type: cell-based
K. pneumoniae D-11 [3] = test: MIC by serial agar dilution; type: cell-based
K. pneumoniae A9678 = test: MIC by serial agar dilution; type: cell-based; conditions: medium A: Nutrient agar
E. cloacae A20364 = test: MIC by serial agar dilution; type: cell-based; conditions: E. cloacae A20364, kanamycin resistant strain, medium A: Nutrient agar
E. cloacae A21006 = test: MIC by serial agar dilution; type: cell-based; conditions: E. cloacae A21006, kanamycin resistant strain, medium A: Nutrient agar
P. mirabilis A9554 = test: MIC by serial agar dilution; type: cell-based; conditions: medium A: Nutrient agar
P. vulgaris A9436 = test: MIC by serial agar dilution; type: cell-based; conditions: medium A: Nutrient agar
S. marcescens A20019 = test: MIC by serial agar dilution; type: cell-based
S. marcescens A22302 = test: MIC by serial agar dilution; type: cell-based
P. aeruginosa A9930 = test: MIC by serial agar dilution; type: cell-based; conditions: medium A: Nutrient agar
P. aeruginosa A9843A = test: microbe, parasite or virus in culture; type: cell-based
P. aeruginosa A20601 = test: MIC by serial agar dilution; type: cell-based; conditions: P. aeruginosa A20601, kanamycin resistant strain, medium A: Nutrient agar
Mycobacterium 607 D87 = test: MIC by serial agar dilution; type: cell-based
Mycobacterium 607 D46 = test: MIC by serial agar dilution; type: cell-based; conditions: Mycobacterium 607 D46, kanamycin resistant strain, medium B: No. 1001 medium
Mycobacterium phlei = test: MIC by serial agar dilution; type: cell-based
Mycobacterium ranae = test: MIC by serial agar dilution; type: cell-based
S. aureus Smith [4] = test: in vivo efficacy in mice against experimental infection; conditions: mice, i.m. just before challenge, S. aureus Smith, 5 days observation
E. coli Juhl [5] = test: as above
K. pneumoniae D-11 [6] = test: as above; conditions: mice, i.m. just before challenge, K. pneumoniae D-11, 5 days observation
[7] = system: experimental infections produced by S. aureus, E. coli and K. pneumoniae; test: in vivo activity in mice, Table 5 overall; conditions: i.m.
E. coli D64 = test: stimulating growth of streptomycin-dependent E. coli D64 (paper disc); type: cell-based; conditions: for Growth zone vs E. coli D64, hazy growth zone / Growth zone vs E. coli D64: 37° C., 45 hours; for Growth zone vs E. coli D64, hazy growth zone: value in parentheses
Excerpt: The results are shown in Table 4 wherein the term "boholmycin" is used for short in referring to boholmycin dihydrochloride tetrahydrate.

B. subtilis PCI-219 = test: inhibiting growth of B. subtilis PCI-219 (paper disc); type: cell-based; conditions: for Inhibition zone vs B. subtilis PCI-219: 28° C., 18 hours
Procedure: Boholmycin dihydrochloride tetrahydrate was tested in comparison with streptomycin, glebomycin, myomycin B and kanamycin in respect to stimulating growth of E. coli D64 and in respect to inhibiting growth of B. subtilis PCI-219. The results are shown in Table 4 wherein the term "boholmycin" is used for short in referring to boholmycin dihydrochloride tetrahydrate.
*^1 8 mm paper disc containing 35 μl of test solution
*^3 Incubation at 28° C. for 18 hours

[8] = Escherichia coli, read-out: MIC
[9] = Enterobacter cloacae, read-out: MIC
[10] = Pseudomonas aeruginosa, read-out: MIC
[11] = Bacillus subtilis, PCI219, 18 h, read-out: Inhibition zone vs B. subtilis PCI-219

Question: What does the source list for `CCC(=O)N[C@@H]1C(CO)O[C@H](O[C@@H]([C@H](N)[C@H](O)CO)[C@@H](O)CN)C(O)C1O` (stereo partly drawn) [sorbistin A1]?
Answer: MIC (S. aureus 209P; S. aureus 209P, medium A: Nutrient agar): 50 mg/L (≈ 126 µM); MIC (S. aureus Smith [1]; S. aureus Smith, medium A: Nutrient agar): 50 mg/L (≈ 126 µM); MIC (S. aureus A20239; S. aureus A20239, kanamycin resistant strain, medium A: Nutrient agar): 100 mg/L (≈ 252 µM); MIC (M. luteus PCI-1001; M. luteus PCI-1001, medium A: Nutrient agar): 50 mg/L (≈ 126 µM); MIC (M. flavus D-12; medium A: Nutrient agar): 12.5 mg/L (≈ 31.5 µM); MIC (B. subtilis ATCC6633): 50 mg/L (≈ 126 µM); MIC (B. anthracis IID-115; B. anthracis IID-115, medium A: Nutrient agar): 50 mg/L (≈ 126 µM); MIC (E. coli NIHJ): 25 mg/L (≈ 62.9 µM); MIC (E. coli Juhl [2]): 50 mg/L (≈ 126 µM); MIC (E. coli K-12; medium A: Nutrient agar): 25 mg/L (≈ 62.9 µM); MIC (E. coli A20664): 25 mg/L (≈ 62.9 µM); MIC (E. coli JR35/c600; E. coli JR35/c600, kanamycin resistant strain, medium A: Nutrient agar): 25 mg/L (≈ 62.9 µM); MIC (K. pneumoniae D-11 [3]; medium A: Nutrient agar): 6.3 mg/L (≈ 15.9 µM); MIC (K. pneumoniae A9678): 100 mg/L (≈ 252 µM); MIC (E. cloacae A20364): 50 mg/L (≈ 126 µM); MIC (E. cloacae A21006): 50 mg/L (≈ 126 µM); MIC (P. mirabilis A9554): 50 mg/L (≈ 126 µM); MIC (P. vulgaris A9436): 50 mg/L (≈ 126 µM); MIC (S. marcescens A20019; S. marcescens A20019, medium A: Nutrient agar): > 200 mg/L; MIC (S. marcescens A22302; S. marcescens A22302, kanamycin resistant strain, medium A: Nutrient agar): 400 mg/L (≈ 1010 µM); MIC (P. aeruginosa A9930): 12.5 mg/L (≈ 31.5 µM); MIC (P. aeruginosa A9843A; P. aeruginosa A9843A, medium A: Nutrient agar): 6.3 mg/L (≈ 15.9 µM); MIC (P. aeruginosa A20601): 3.1 mg/L (≈ 7.8 µM); MIC (Mycobacterium 607 D87; Mycobacterium 607 D87, medium B: No. 1001 medium): 50 mg/L (≈ 126 µM); MIC (Mycobacterium 607 D46): 100 mg/L (≈ 252 µM); MIC (Mycobacterium phlei; Mycobacterium phlei, medium B: No. 1001 medium): 25 mg/L (≈ 62.9 µM); MIC (Mycobacterium ranae; Mycobacterium ranae, medium B: No. 1001 medium): 50 mg/L (≈ 126 µM); PD50 (S. aureus Smith [4]): 50 mg/kg; PD50 (E. coli Juhl [5]; mice, i.m. just before challenge, E. coli Juhl, 5 days observation): 100 mg/kg; PD50 (K. pneumoniae D-11 [6]): 75 mg/kg; in vivo activity compared with streptomycin and kanamycin [7]: much less active than streptomycin and kanamycin

Question: How did the MIC (S. aureus 209P; Staphylococcus aureus, 209P) turn out when `[H]/N=C(/N)N[C@H]1[C@H](O)[C@@H](O)[C@H](O[C@@H]2O[C@@H](C)[C@](O)(C=O)[C@H]2O[C@@H]2O[C@@H](CO)[C@H](O)[C@@H](O)[C@@H]2NC)[C@@H](N/C(N)=N\[H])[C@@H]1O` [streptomycin] was run?
Answer: 1.6 mg/L (≈ 2.75 µM)

Question: What about the MIC (S. aureus Smith [1]; Staphylococcus aureus) of the same compound?
Answer: 1.6 mg/L (≈ 2.75 µM)

Question: What about the MIC (S. aureus A20239; Staphylococcus aureus, A20239) of the same compound?
Answer: > 100 mg/L

Question: What about the MIC (M. luteus PCI-1001; Micrococcus luteus, PCI1001) of the same compound?
Answer: 3.1 mg/L (≈ 5.33 µM)

Question: And the MIC (M. flavus D-12; Micrococcus flavus, D12, medium A: Nutrient agar, read-out: MIC)?
Answer: 0.8 mg/L (≈ 1.38 µM)

Question: And the MIC (B. subtilis ATCC6633; Bacillus subtilis, read-out: MIC)?
Answer: 0.8 mg/L (≈ 1.38 µM)

Question: And the MIC (B. anthracis IID-115; Bacillus anthracis, IID115)?
Answer: 0.4 mg/L (≈ 0.688 µM)

Question: And the MIC (E. coli NIHJ; [8])?
Answer: 1.6 mg/L (≈ 2.75 µM)

Question: And the MIC (E. coli Juhl [2]; [8])?
Answer: 3.1 mg/L (≈ 5.33 µM)

Question: And the MIC (E. coli K-12; Escherichia coli, K12, medium A: Nutrient agar, read-out: MIC)?
Answer: 1.6 mg/L (≈ 2.75 µM)

Question: And the MIC (E. coli A20664; [8])?
Answer: > 100 mg/L

Question: And the MIC (E. coli JR35/c600; Escherichia coli, JR35/C600)?
Answer: > 100 mg/L

Question: What about the MIC (K. pneumoniae D-11 [3]; Klebsiella pneumoniae, D11, medium A: Nutrient agar, read-out: MIC) of the same compound?
Answer: 0.4 mg/L (≈ 0.688 µM)

Question: What about the MIC (K. pneumoniae A9678; Klebsiella pneumoniae, read-out: MIC) of the same compound?
Answer: 6.3 mg/L (≈ 10.8 µM)

Question: What about the MIC (E. cloacae A20364; [9]) of the same compound?
Answer: > 100 mg/L

Question: And the MIC (E. cloacae A21006; [9])?
Answer: > 100 mg/L

Question: What about the MIC (P. mirabilis A9554; Proteus mirabilis, read-out: MIC) of the same compound?
Answer: 1.6 mg/L (≈ 2.75 µM)

Question: What about the MIC (P. vulgaris A9436; Proteus vulgaris, read-out: MIC) of the same compound?
Answer: 0.4 mg/L (≈ 0.688 µM)

Question: What about the MIC (S. marcescens A20019; Serratia marcescens, A20019) of the same compound?
Answer: 25 mg/L (≈ 43 µM)

Question: What about the MIC (S. marcescens A22302; Serratia marcescens, A22302) of the same compound?
Answer: > 100 mg/L

Question: And the MIC (P. aeruginosa A9930; [10])?
Answer: > 100 mg/L

Question: What about the MIC (P. aeruginosa A9843A; Pseudomonas aeruginosa, A9843A) of the same compound?
Answer: > 100 mg/L

Question: What about the MIC (P. aeruginosa A20601; [10]) of the same compound?
Answer: 3.1 mg/L (≈ 5.33 µM)

Question: And the MIC (Mycobacterium 607 D87; Mycobacterium, 607D87)?
Answer: 0.4 mg/L (≈ 0.688 µM)

Question: And the MIC (Mycobacterium 607 D46; read-out: MIC)?
Answer: 0.4 mg/L (≈ 0.688 µM)

Question: And the MIC (Mycobacterium phlei; Mycolicibacterium phlei)?
Answer: 0.2 mg/L (≈ 0.344 µM)

Question: What about the MIC (Mycobacterium ranae; Mycobacterium) of the same compound?
Answer: 0.4 mg/L (≈ 0.688 µM)

Question: What about the “Growth zone vs E. coli D64, hazy growth zone” value (E. coli D64; 0.06 mg/ml) of the same compound?
Answer: 14 mm

Question: And the “Growth zone vs E. coli D64” value (E. coli D64; 0.25 mg/ml)?
Answer: 17 mm

Question: What about the “Growth zone vs E. coli D64, hazy growth zone” value (E. coli D64; 0.25 mg/ml) of the same compound?
Answer: 28 mm

Question: What about the zone of inhibition at 60 µg/mL (B. subtilis PCI-219; [11]) of the same compound?
Answer: 32 mm

Question: What about the zone of inhibition at 250 µg/mL (B. subtilis PCI-219; [11]) of the same compound?
Answer: 35 mm

Question: And the ED50 (S. aureus Smith [4]; Staphylococcus aureus, im, 120 h, read-out: PD50)?
Answer: 1.9 mg/kg

Question: And the ED50 (E. coli Juhl [5]; Escherichia coli, im, 120 h, read-out: PD50)?
Answer: 1.4 mg/kg

Question: What about the ED50 (K. pneumoniae D-11 [6]; Klebsiella pneumoniae, D11, im, 120 h, read-out: PD50) of the same compound?
Answer: 0.85 mg/kg

Question: Which results are given for myomycin B?
Answer: Growth zone vs E. coli D64, hazy growth zone (E. coli D64; 0.25 mg/ml): 28 mm; Growth zone vs E. coli D64 (E. coli D64; 1 mg/ml): 17 mm; Growth zone vs E. coli D64, hazy growth zone (E. coli D64; 1 mg/ml): 34 mm; induction/stimulation of growth of streptomycin-dependent E. coli D64 (E. coli D64; result in words): stimulate the growth; Inhibition zone vs B. subtilis PCI-219 (B. subtilis PCI-219; 0.25 mg/ml): 29 mm; Inhibition zone vs B. subtilis PCI-219 (B. subtilis PCI-219; 1 mg/ml): 34 mm
